Assay results reported in patent US20160222021A1, “ARYL ETHER-BASE KINASE INHIBITORS” (BRISTOL-MYERS SQUIBB COMPANY, priority 2013, published 2016).

Each compound was assayed against T1, GST-Xa-hAAK1 (Homo sapiens, UniProt Q2M2I8) (assay: AAK1 Kinase Assay). Details: ATP 22 μM; IC50 ranges.
T1 construct: made in house
Assay type: biochemical
Procedure: The assays were performed in U-bottom 384-well plates. The final assay volume was 30 μl prepared from 15 μl additions of enzyme and substrates (fluoresceinated peptide (5-FAM)-Aha-[…]-NH2 and ATP) and test compounds in assay buffer (10 mM Tris-HCL pH 7.4, 10 mM MgCl2, 0.01% Tween-20 and 1.0 mM DTT). The reactions were initiated by the combination of bacterially expressed, GST-Xa-hAAK1 with substrates and test compounds. The reactions were incubated at room temperature for 3 hours and terminated by adding 60 μl of 35 mM EDTA buffer to each sample. The reactions were analyzed on the Caliper LabChip 3000 (Caliper, Hopkinton, Mass.) by electrophoretic separation of the fluorescent substrate and phosphorylated product. […] The final concentration of reagents in the assays are ATP, 22 μM; (5-FAM)-Aha-[…]-NH2, 1.5 μM; GST-Xa-hAAK1, 3.5 nM; and DMSO, 1.6%. Dose response curves were generated to determine the concentration required inhibiting 50% of kinase activity (IC50). Compounds were dissolved at 10 mM in dimethylsulfoxide (DMSO) and evaluated at eleven concentrations. IC50 values were derived by non-linear regression analysis.

T1 sequence (Q2M2I8 whole entry): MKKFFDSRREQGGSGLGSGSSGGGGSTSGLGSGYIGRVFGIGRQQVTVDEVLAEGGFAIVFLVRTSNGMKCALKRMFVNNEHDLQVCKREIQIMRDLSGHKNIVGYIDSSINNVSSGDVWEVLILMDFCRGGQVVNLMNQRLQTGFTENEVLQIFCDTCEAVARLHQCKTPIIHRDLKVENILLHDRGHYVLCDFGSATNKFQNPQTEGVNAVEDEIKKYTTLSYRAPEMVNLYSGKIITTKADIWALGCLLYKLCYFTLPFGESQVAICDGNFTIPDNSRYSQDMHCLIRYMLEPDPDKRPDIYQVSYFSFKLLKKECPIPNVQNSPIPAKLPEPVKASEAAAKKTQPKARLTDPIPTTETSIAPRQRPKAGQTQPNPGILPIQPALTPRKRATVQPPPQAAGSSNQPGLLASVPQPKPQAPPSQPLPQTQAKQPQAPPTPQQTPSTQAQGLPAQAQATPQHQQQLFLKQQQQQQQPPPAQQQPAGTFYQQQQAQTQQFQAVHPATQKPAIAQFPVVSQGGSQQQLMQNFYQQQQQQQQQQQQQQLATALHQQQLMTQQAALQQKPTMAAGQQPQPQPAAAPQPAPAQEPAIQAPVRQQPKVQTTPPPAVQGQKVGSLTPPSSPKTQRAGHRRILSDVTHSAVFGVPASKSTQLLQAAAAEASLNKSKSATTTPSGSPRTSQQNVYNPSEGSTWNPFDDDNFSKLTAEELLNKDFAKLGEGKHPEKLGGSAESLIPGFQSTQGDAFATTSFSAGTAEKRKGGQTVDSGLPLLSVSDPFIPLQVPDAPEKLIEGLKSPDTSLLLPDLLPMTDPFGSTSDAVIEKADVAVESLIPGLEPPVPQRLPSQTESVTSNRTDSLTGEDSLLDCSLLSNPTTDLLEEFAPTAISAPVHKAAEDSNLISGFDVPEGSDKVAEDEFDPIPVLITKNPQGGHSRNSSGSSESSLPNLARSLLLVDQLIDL

Row | SMILES | IC50 [nM]
1 | CC(=O)Nc1cc2c(cn1)COc1c-2ccc(OCC(C)(N)CC(C)C)c1OC(F)F (racemic) [Example 65, N-(8-((2-amino-2,4-dimethylpentyl)oxy)-7-(difluoromethoxy)-5H-chromeno[3,4-c]pyridin-2-yl)acetamide] | < 1
2 | COC(=O)Nc1cc2c(cn1)COc1c-2ccc(OC[C@@H](N)CC(C)C)c1C#N [Example 84, (S)-methyl (8-((2-amino-4-methylpentyl)oxy)-7-cyano-5H-chromeno[3,4-c]pyridin-2-yl)carbamate] | 1 to 10
3 | CC(=O)Nc1cc2c(cn1)COc1c-2ccc(OC[C@@](C)(N)CC(C)C)c1OC(F)F [Example 87, (S)—N-(8-((2-amino-2,4-dimethylpentyl)oxy)-7-(difluoromethoxy)-5H-chromeno[3,4-c]pyridin-2-yl)acetamide] | < 1
4 | CC(C)C[C@](C)(N)COc1ccc2c(c1)OCc1cnc(N)cc1-2 [Example 90, (S)-8-((2-amino-2,4-dimethylpentyl)oxy)-5H-chromeno[3,4-c]pyridin-2-amine] | 1 to 10
5 | [2H]C1([2H])Oc2cc(OC[C@@](C)(N)CC(C)C)ccc2-c2cc(NC(=O)OC)ncc21 [Example 97, (S)-methyl (8-((2-amino-2,4-dimethylpentyl)oxy)-5,5-deutero-5H-chromeno[3,4-c]pyridin-2-yl)carbamate] | 1 to 10
6 | CC(=O)Nc1cc2c(cn1)COc1cc(OC[C@@](C)(N)CC(C)C)cc(F)c1-2 [Example 98, (S)—N-(8-((2-amino-2,4-dimethylpentyl)oxy)-10-fluoro-5H-chromeno[3,4-c]pyridin-2-yl)acetamide] | 1 to 10
7 | CC(C)C[C@](C)(N)COc1cc(F)c2c(c1)OCc1cnc(N)cc1-2 [Example 99, (S)-8-((2-amino-2,4-dimethylpentyl)oxy)-10-fluoro-5H-chromeno[3,4-c]pyridin-2-amine] | 1 to 10
8 | CC(=O)Nc1cc2c(cn1)COc1cc(OC[C@H](CC(C)C)NC(C)=O)ccc1-2 [Example 100, (S)—N-(8-((2-acetamido-4-methylpentyl)oxy)-5H-chromeno[3,4-c]pyridin-2-yl)acetamide] | 100 to 1200
9 | CC(=O)Nc1cc2c(cn1)COc1cc(OC[C@H](CC(C)C)NS(C)(=O)=O)ccc1-2 [Example 101, (S)—N-(8-((4-methyl-2-(methylsulfonamido)pentyl)oxy)-5H-chromeno[3,4-c]pyridin-2-yl)acetamide] | 10 to 100
10 | Cc1cc2c(cn1)c(=O)oc1cc(OC[C@@](C)(N)CC(C)C)c(Cl)cc12 [Example 103, (S)-8-((2-amino-2,4-dimethylpentyl)oxy)-9-chloro-2-methyl-5H-chromeno[3,4-c]pyridin-5-one] | 100 to 1200

Second part, the compound after the results:

Row | IC50 [nM] | SMILES
11 | 1 to 10 | COC(=O)Nc1cc2c(cn1)COc1cc(OCC(C)(N)CC(C)C)ccc1-2 (racemic) [Example 60, methyl (8-((2-amino-2,4-dimethylpentyl)oxy)-5H-chromeno[3,4-c]pyridin-2-yl)carbamate]
12 | < 1 | COc1c(OCC(C)(N)CC(C)C)ccc2c1OCc1cnc(NC(C)=O)cc1-2 (racemic) [Example 66, N-(8-((2-amino-2,4-dimethylpentyl)oxy)-7-methoxy-5H-chromeno[3,4-c]pyridin-2-yl)acetamide]
13 | < 1 | COC(=O)Nc1cc2c(cn1)COc1c-2ccc(OC[C@@](C)(N)CC(C)C)c1C#N [Example 80, (S)-methyl (8-((2-amino-2,4-dimethylpentyl)oxy)-7-cyano-5H-chromeno[3,4-c]pyridin-2-yl)carbamate]
14 | 1 to 10 | COC(=O)Nc1cc2c(cn1)COc1cc(OC[C@@](C)(N)CC(C)C)c(Cl)cc1-2 [Example 83, (S)-methyl (8-((2-amino-2,4-dimethylpentyl)oxy)-9-chloro-5H-chromeno[3,4-c]pyridin-2-yl)carbamate]
15 | < 1 | COc1c(OC[C@@](C)(N)CC(C)C)ccc2c1OCc1cnc(NC(C)=O)cc1-2 [Example 85, (S)—N-(8-((2-amino-2,4-dimethylpentyl)oxy)-7-methoxy-5H-chromeno[3,4-c]pyridin-2-yl)acetamide]
16 | < 1 | CC(C)C[C@](C)(N)COc1ccc2c(c1Cl)OCc1cnc(N)cc1-2 [Example 88, (S)-8-((2-amino-2,4-dimethylpentyl)oxy)-7-chloro-5H-chromeno[3,4-c]pyridin-2-amine]
17 | < 1 | COC(=O)Nc1cc2c(cn1)COc1c-2ccc(OC[C@@](C)(N)CC(C)C)c1OC(F)F [Example 89, (S)-methyl (8-((2-amino-2,4-dimethylpentyl)oxy)-7-(difluoromethoxy)-5H-chromeno[3,4-c]pyridin-2-yl)carbamate]
18 | < 1 | CC(=O)Nc1cc2c(cn1)COc1c-2ccc(OC[C@@](C)(N)CC(C)C)c1Cl [Example 91, (S)—N-(8-((2-amino-2,4-dimethylpentyl)oxy)-7-chloro-5H-chromeno[3,4-c]pyridin-2-yl)acetamide]
19 | 1 to 10 | COC(=O)Nc1cc2c(cn1)COc1c-2ccc(OC[C@@](C)(N)CC(C)C)c1Cl [Example 92, (S)-methyl (8-((2-amino-2,4-dimethylpentyl)oxy)-7-chloro-5H-chromeno[3,4-c]pyridin-2-yl)carbamate]

Same assay, conditions: ATP 22 μM; numeric values

Row | SMILES | IC50 [nM]
20 | COC(=O)Nc1cc2c(cn1)COc1c-2ccc(OC[C@@](C)(N)CC(C)C)c1OC [Example 86, (S)-methyl (8-((2-amino-2,4-dimethylpentyl)oxy)-7-methoxy-5H-chromeno[3,4-c]pyridin-2-yl)carbamate] | 0.39
21 | CCOC(=O)Nc1cc2c(cn1)COc1c-2ccc(OC[C@@](C)(N)CC(C)C)c1Cl [Example 93, (S)-ethyl (8-((2-amino-2,4-dimethylpentyl)oxy)-7-chloro-5H-chromeno[3,4-c]pyridin-2-yl)carbamate] | 0.89
22 | COC(=O)Nc1cc2c(cn1)COc1cc(OC[C@@](C)(N)CC(C)C)c(F)cc1-2 [Example 95, (S)-methyl (8-((2-amino-2,4-dimethylpentyl)oxy)-9-fluoro-5H-chromeno[3,4-c]pyridin-2-yl)carbamate] | 2.1
23 | Cc1cc2c(cn1)c(=O)oc1cc(OC[C@@](C)(N)CC(C)C)ccc12 [Example 102, (S)-8-((2-amino-2,4-dimethylpentyl)oxy)-2-methyl-5H-chromeno[3,4-c]pyridin-5-one] | 556

These compounds were tested against AAK1 (full length human) in HEK293F cells (Homo sapiens, UniProt Q2M2I8) (assay: HEK293F Cell-Based Assay (phospho-mu2 Western blot)). Details: 3 hours, IC50 ranges.
Chain of AAK1 (full length human) in HEK293F cells (Q2M2I8 1-822 limits assumed): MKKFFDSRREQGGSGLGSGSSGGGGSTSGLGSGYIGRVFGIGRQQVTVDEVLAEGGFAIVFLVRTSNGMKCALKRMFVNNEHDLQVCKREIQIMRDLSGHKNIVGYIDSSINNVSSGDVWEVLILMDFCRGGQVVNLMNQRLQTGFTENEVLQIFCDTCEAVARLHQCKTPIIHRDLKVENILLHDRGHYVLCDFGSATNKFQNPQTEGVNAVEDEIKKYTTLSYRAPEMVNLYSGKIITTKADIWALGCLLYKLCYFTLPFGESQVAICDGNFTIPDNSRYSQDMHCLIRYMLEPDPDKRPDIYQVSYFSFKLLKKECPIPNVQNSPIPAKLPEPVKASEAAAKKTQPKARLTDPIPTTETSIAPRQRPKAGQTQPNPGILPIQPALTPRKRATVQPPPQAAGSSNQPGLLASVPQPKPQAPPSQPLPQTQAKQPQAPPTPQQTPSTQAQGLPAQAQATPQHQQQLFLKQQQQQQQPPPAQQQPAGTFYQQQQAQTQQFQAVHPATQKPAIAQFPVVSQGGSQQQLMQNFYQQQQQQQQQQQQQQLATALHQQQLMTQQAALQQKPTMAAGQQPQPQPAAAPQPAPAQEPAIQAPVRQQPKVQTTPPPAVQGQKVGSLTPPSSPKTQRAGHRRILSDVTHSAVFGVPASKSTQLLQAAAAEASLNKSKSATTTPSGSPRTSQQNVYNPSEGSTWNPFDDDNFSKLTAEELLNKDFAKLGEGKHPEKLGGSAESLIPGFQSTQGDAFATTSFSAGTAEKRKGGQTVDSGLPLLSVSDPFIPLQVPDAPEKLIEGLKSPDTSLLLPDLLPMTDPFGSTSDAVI
Procedure: HEK293F cells were cultured in media containing DMEM (Gibco, cat. #11965), 10% FBS (SAFC Biosciences, cat. #12103C), 1×GPS (glutamine, penicillin and streptomycin). On day one, cells were plated on a 10 cm dish so that they are ˜80% confluent at time of transfection. Roughly 12 million cells were in a 10 cm dish at time of transfection. On day two, each dish was transfected with 48 ug DNA and 144 ul Lipofectamine 2000 (Invitrogen, cat. #11668-019). The DNA was comprised of a mixture (per 10 cm dish) containing 3 ug AAK1/HA/pIRES (full length human, NCBI accession no. NP_055726.2), 45 μg Flag/AP2MI/pcDNA (full length human), and 1.5 ml OPTI-MEM. The Lipofectamine 2000 is made up of a mixture (per 10 cm dish) containing 144 μl Lipofectamine 2000 and 1.5 ml OPTI-MEM. Each mixture was transferred to individual 15 ml tubes and incubated at RT for 5 minutes, and then the two mixes were combined and incubated at RT for 20 minutes. Growth media was then aspirated from each 10 cm plate and replaced with 10 ml of DMEM+10% FBS (no GPS). Finally, 3 ml DNA/Lipofectamine mix was added to each 10 cm dish and mix gently followed by incubate of plate overnight at 37° C. and 5% CO2.
On day three, compounds were diluted in 100% DMSO at 1000× final concentration, followed by 3-fold serial dilutions for a total of 5 concentrations tested. Four compounds were tested per 10 cm dish. One ul of each compound dilution was then pipetted into a deep-well, 96-well plate, followed by addition of 500 μl DMEM+0.5% FBS into each well for a 2× final concentration of each compound. Cells were resuspended in a 10 cm dish by simple pipetting (HEK293 cells come off the plate that easy at this point) and then transferred to a 50 ml conical tube and pelleted by centrifugation at 1000 rpm for 5 min. Cell pellets were then resuspended in 2.75 ml DMEM+0.5% FBS per 10 cm dish and 100 μl of cell suspension transferred into each well of 96-well TC plate. Finally, 100 μl of 2× compound diluted in DMEM+0.5% FBS was then added into wells containing cell suspension for a 1× final concentration. Plates were then incubated at 37° C. and 5% CO2 for 3 hours followed by transferring of cell suspensions from each well into 12-tube PCR strips. The PCR strips were spun in a tip rack at 1000 rpm for 5 minutes to pellet cells and media was then removed by pipetting without disturbing the cell pellet.
To prepare for Western Blot analysis, cell pellets were resuspend in 40 ul 1× LDS-PAGE sample buffer (Invitrogen, cat. # NP0008)+2× Halt phophatase and protease inhibitor cocktail (Thermo Scientific, cat. #1861284), followed by sonicating each with microtip sonicator set at 5 for 8-10 seconds. Five ul of 10× NuPage Sample Reducing Agent (with 50 mM DTT) was to each sample followed by heat denaturing at 70 C for 10 min on PCR machine. A total of 10 μl per sample was loaded into each lane of a 4-20% Tris-Glycine Criterion 26-well gel (Biorad, cat. #345-0034) for the phospho-mu2 blot and 10 μl per lane in a 4-12% Bis-Tris (+MES buffer) NuPAGE 26-well gel (Invitrogen, cat. # WG1403BX10) for the mu2 blot. For controls, 2 ng of phospho-mu2 or 20 ng mu2/Flag proteins were loaded in the last well of each gel. After SDS-PAGE, samples on each gel were transferred to PVDF membrane using an iBlot and membranes were blocked for one hour in TBST+5% milk, followed by wash 3× for 5-10 min with TBST. Criterion gels were probed with rabbit anti-phospho-mu2 (1:5000; a rabbit polyclonal antibody produced by New England Peptide and affinity purified at Lexicon) in TBST+5% BSA, whereas, NuPAGE gels were probed with mouse anti-Flag (1:500; Sigma, cat. # F1804) in TBST+5% milk, and these primary antibodies were incubated overnight at 4° C. on a rocker. […]

Row | SMILES | IC50 [nM]
24 | COC(=O)Nc1cc2c(cn1)COc1cc(OCC(C)(N)CC(C)C)ccc1-2 (racemic) [Example 60, methyl (8-((2-amino-2,4-dimethylpentyl)oxy)-5H-chromeno[3,4-c]pyridin-2-yl)carbamate] | 1 to 10
25 | CC(=O)Nc1cc2c(cn1)COc1c-2ccc(OCC(C)(N)CC(C)C)c1OC(F)F (racemic) [Example 65, N-(8-((2-amino-2,4-dimethylpentyl)oxy)-7-(difluoromethoxy)-5H-chromeno[3,4-c]pyridin-2-yl)acetamide] | < 1
26 | COc1c(OCC(C)(N)CC(C)C)ccc2c1OCc1cnc(NC(C)=O)cc1-2 (racemic) [Example 66, N-(8-((2-amino-2,4-dimethylpentyl)oxy)-7-methoxy-5H-chromeno[3,4-c]pyridin-2-yl)acetamide] | 1 to 10
27 | COC(=O)Nc1cc2c(cn1)COc1cc(OCC(C)(N)CC(C)C)ccc1-2 (stereo not drawn) [Example 70, methyl (8-((2-amino-2,4-dimethylpentyl)oxy)-5H-chromeno[3,4-c]pyridin-2-yl)carbamate] | 1 to 10
